Results as given in patent US9687479B2, “Multisubstituted aromatic compounds as serine protease inhibitors” (VERSEON CORPORATION, priority 2013, dated 2017).

Target: Human thrombin (Homo sapiens (Human), UniProt P00734)
Test: Thrombin protease activity inhibition assay (chromogenic substrate S-2238)
Format: biochemical
Conditions: 3 nM thrombin, 125 μM S-2238, 10 min pre-incubation, RT
Outline: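 Thrombin at 3 nM final in 0.05 M Tris pH 7.4, 0.015 M NaCl, 0.01% PEG-8000, at room temperature; compounds as ten-point three-fold dilutions.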

SMILES	IC50 [nM]
O=C(c1cccs1)n1nc(-c2cccn(Cc3ccncc3)c2=O)cc1NCc1ccc(Cl)s1 [Cmpd 188, 3-(5-[(5-chlorothiophen-2-yl)methyl]amino-1-[(thiophen-2-yl)carbonyl]-1H-pyrazol-3-yl)-1-(pyridin-4-ylmethyl)-1,2-dihydropyridin-2-one]	< 100
O=C(c1ccoc1)n1nc(-c2cccn(Cc3ccc(Cl)s3)c2=O)cc1NCc1ccc(Cl)s1 [Cmpd 41, 1-[(5-chlorothiophen-2-yl)methyl]-3-(5-[(5-chlorothiophen-2-yl)methyl]amino-1-[(furan-3-yl)carbonyl]-1H-pyrazol-3-yl)-1,2-dihydropyridin-2-one]	< 100
COCC(C)(C)C(=O)n1nc(-c2cccn(CCN3CCOCC3)c2=O)cc1NCc1ccc(Cl)s1 [Cmpd 107, 3-(5-[(5-chlorothiophen-2-yl)methyl]amino-1-(3-methoxy-2,2-dimethylpropanoyl)-1H-pyrazol-3-yl)-1-[2-(morpholin-4-yl)ethyl]-1,2-dihydropyridin-2-one]	< 100
COCC(C)(C)C(=O)n1nc(-c2ccc[nH]c2=O)cc1NCc1ccc(Cl)s1 [Cmpd 96, 3-(5-[(5-chlorothiophen-2-yl)methyl]amino-1-(3-methoxy-2,2-dimethylpropanoyl)-1H-pyrazol-3-yl)-1,2-dihydropyridin-2-one]	< 100
CCOC(=O)Cn1cccc(-c2cc(NCc3ccc(Cl)s3)n[nH]2)c1=O [Cmpd 260, ethyl 2-[3-(5-[(5-chlorothiophen-2-yl)methyl]amino-1H-pyrazol-3-yl)-2-oxo-1,2-dihydropyridin-1-yl]acetate]	10000 to 100000
Cn1cccc(-c2cc(NCc3ccc(Cl)s3)n(C(=O)C3(C)COC3)n2)c1=O [Cmpd 148, 3-(5-[(5-chlorothiophen-2-yl)methyl]amino-1-[(3-methyloxetan-3-yl)carbonyl]-1H-pyrazol-3-yl)-1-methyl-1,2-dihydropyridin-2-one]	100 to 1000
O=C(c1ccco1)n1nc(-c2cccn(Cc3ccccn3)c2=O)cc1NCc1ccc(Cl)s1 [Cmpd 164, 3-(5-[(5-chlorothiophen-2-yl)methyl]amino-1-[(furan-2-yl)carbonyl]-1H-pyrazol-3-yl)-1-(pyridin-2-ylmethyl)-1,2-dihydropyridin-2-one]	< 100
O=c1c(-c2cc(NCc3ccc(Cl)s3)[nH]n2)cccn1Cc1ccccc1Cl [Cmpd 30, 1-[(2-chlorophenyl)methyl]-3-(5-[(5-chlorothiophen-2-yl)methyl]amino-1H-pyrazol-3-yl)-1,2-dihydropyridin-2-one]	10000 to 100000
COCC(C)(C)C(=O)n1nc(-c2cccn(Cc3ccccc3)c2=O)cc1NCc1ccc(Cl)s1 [Cmpd 44, 1-benzyl-3-(5-[(5-chlorothiophen-2-yl)methyl]amino-1-(3-methoxy-2,2-dimethylpropanoyl)-1H-pyrazol-3-yl)-1,2-dihydropyridin-2-one]	< 100
COc1ccccc1C(=O)n1nc(-c2cccn(Cc3cccc(Cl)c3)c2=O)cc1NCc1ccc(Cl)s1 [Cmpd 32, 1-[(3-chlorophenyl)methyl]-3-(5-[(5-chlorothiophen-2-yl)methyl]amino-1-[(2-methoxyphenyl)carbonyl]-1H-pyrazol-3-yl)-1,2-dihydropyridin-2-one]	< 100
O=C(c1ccccc1)n1nc(-c2cccn(Cc3ccoc3)c2=O)cc1NCc1ccc(Cl)s1 [Cmpd 64, 3-(1-benzoyl-5-[(5-chlorothiophen-2-yl)methyl]amino-1H-pyrazol-3-yl)-1-(furan-3-ylmethyl)-1,2-dihydropyridin-2-one]	< 100
CCOC(=O)Cn1cccc(-c2cc(NCc3ccc(Cl)s3)n(C(=O)c3ccccc3OC)n2)c1=O [Cmpd 258, ethyl 2-[3-(5-[(5-chlorothiophen-2-yl)methyl]amino-1-[(2-methoxyphenyl)carbonyl]-1H-pyrazol-3-yl)-2-oxo-1,2-dihydropyridin-1-yl]acetate]	< 100
O=C(c1ccccc1)n1nc(-c2cccn(Cc3cccnn3)c2=O)cc1NCc1ccc(Cl)s1 [Cmpd 65, 3-(1-benzoyl-5-[(5-chlorothiophen-2-yl)methyl]amino-1H-pyrazol-3-yl)-1-(pyridazin-3-ylmethyl)-1,2-dihydropyridin-2-one]	< 100
O=C(c1ccoc1)n1nc(-c2cccn(Cc3ncccn3)c2=O)cc1NCc1ccc(Cl)s1 [Cmpd 178, 3-(5-[(5-chlorothiophen-2-yl)methyl]amino-1-[(furan-3-yl)carbonyl]-1H-pyrazol-3-yl)-1-(pyrimidin-2-ylmethyl)-1,2-dihydropyridin-2-one]	< 100
COc1ccccc1C(=O)n1nc(-c2cccn(Cc3ccccc3)c2=O)cc1NCc1ccc(Cl)s1 [Cmpd 47, 1-benzyl-3-(5-[(5-chlorothiophen-2-yl)methyl]amino-1-[(2-methoxyphenyl)carbonyl]-1H-pyrazol-3-yl)-1,2-dihydropyridin-2-one]	< 100
O=C(c1ccccc1)n1nc(-c2cccn(Cc3ccncc3)c2=O)cc1NCc1ccc(Cl)s1 [Cmpd 68, 3-(1-benzoyl-5-[(5-chlorothiophen-2-yl)methyl]amino-1H-pyrazol-3-yl)-1-(pyridin-4-ylmethyl)-1,2-dihydropyridin-2-one]	> 100000
O=C(c1cccc2c1OCCO2)n1nc(-c2cccn(Cc3cccnc3)c2=O)cc1NCc1ccc(Cl)s1 [Cmpd 114, 3-(5-[(5-chlorothiophen-2-yl)methyl]amino-1-[(2,3-dihydro-1,4-benzodioxin-5-yl)carbonyl]-1H-pyrazol-3-yl)-1-(pyridin-3-ylmethyl)-1,2-dihydropyridin-2-one]	< 100
O=C(c1ccccc1)n1nc(-c2cccn(Cc3cccs3)c2=O)cc1NCc1ccc(Cl)s1 [Cmpd 70, 3-(1-benzoyl-5-[(5-chlorothiophen-2-yl)methyl]amino-1H-pyrazol-3-yl)-1-(thiophen-2-ylmethyl)-1,2-dihydropyridin-2-one]	< 100
COCCn1cccc(-c2cc(NCc3ccc(Cl)s3)n[nH]2)c1=O [Cmpd 220, 3-(5-[(5-chlorothiophen-2-yl)methyl]amino-1H-pyrazol-3-yl)-1-(2-methoxyethyl)-1,2-dihydropyridin-2-one]	10000 to 100000
O=C(c1ccco1)n1nc(-c2cccn(Cc3ccoc3)c2=O)cc1NCc1ccc(Cl)s1 [Cmpd 162, 3-(5-[(5-chlorothiophen-2-yl)methyl]amino-1-[(furan-2-yl)carbonyl]-1H-pyrazol-3-yl)-1-(furan-3-ylmethyl)-1,2-dihydropyridin-2-one]	< 100
CC1(C(=O)n2nc(-c3cccn(Cc4ncccn4)c3=O)cc2NCc2ccc(Cl)s2)CCOCC1 [Cmpd 156, 3-(5-[(5-chlorothiophen-2-yl)methyl]amino-1-[(4-methyloxan-4-yl)carbonyl]-1H-pyrazol-3-yl)-1-(pyrimidin-2-ylmethyl)-1,2-dihydropyridin-2-one]	< 100
O=C(c1ccc(N2CCOCC2)cc1)n1nc(-c2ccc[nH]c2=O)cc1NCc1ccc(Cl)s1 [Cmpd 207, 3-(5-[(5-chlorothiophen-2-yl)methyl]amino-1-[4-(morpholin-4-yl)phenyl]carbonyl-1H-pyrazol-3-yl)-1,2-dihydropyridin-2-one]	< 100
CC(C)(C)C(=O)n1nc(-c2cccn(CCc3ccccc3)c2=O)cc1NCc1ccc(Cl)s1 [Cmpd 76, 3-(5-[(5-chlorothiophen-2-yl)methyl]amino-1-(2,2-dimethylpropanoyl)-1H-pyrazol-3-yl)-1-(2-phenylethyl)-1,2-dihydropyridin-2-one]	< 100
